{"source": "patent US6407114B1", "about": "“Pyrazolopyrimidinone CGMP PDE5 inhibitors for the treatment of sexual dysfunction” (Pfizer Inc., priority 1998, dated 2002)"}
{"target": "cGMP PDE5 (UniProt O76074)", "assay": "In vitro PDE inhibitory activity against cGMP PDE5", "type": "biochemical", "details": "in vitro inhibition of cGMP PDE5", "protocol": "In vitro PDE inhibitory activities against cyclic guanosine 3′,5′-monophosphate (cGMP) and cyclic adenosine 3′,5′-monophosphate (cAMP) phosphodiesterases were determined by measurement of their IC50 values (the concentration of compound required for 50% inhibition of enzyme activity).\nThe required PDE enzymes were isolated from a variety of sources, including human corpus cavernosum, human and rabbit platelets, human cardiac ventricle, human skeletal muscle and bovine retina, essentially by the method of W. J. Thompson and M. M. Appleman (Biochem., 1971, 10, 311). In particular, the cGMP-specific PDE (PDE5) and the cGMP-inhibited cAMP PDE (PDE3) were obtained from human corpus cavernosum tissue, human platelets or rabbit platelets; the cGMP-stimulated PDE (PDE2) was obtained from human corpus cavernosum; the calcium/calmodulin (Ca/CAM)-dependent PDE (PDE1) from human cardiac ventricle; the cAMP-specific PDE (PDE4) from human skeletal muscle; and the photoreceptor PDE (PDE6) from bovine retina.\nAssays were performed using a modification of the “batch” method of W. J. Thompson et al. (Biochem., 1979, 18, 5228).", "units": {"IC50": "nM"}}
{"compound": "CCCOc1ccc(S(=O)(=O)N2CCN(C)CC2)cc1-c1nc2c(c(C)nn2Cc2ccccn2)c(=O)[nH]1", "note": "[Example 14, 3-Methyl-6-[5-(4-methylpiperazin-1-ylsulphonyl)-2-n-propoxyphenyl]-1-(pyridin-2-yl)methyl-1,5-dihydro-4H-pyrazolo[3,4-d]pyrimidin-4-one]", "IC50": 4.4}
{"compound": "CCCn1nc(-c2cnccn2)c2c(=O)[nH]c(-c3cc(S(=O)(=O)N4CCN(CC)CC4)cnc3OCC)nc21", "note": "[Example 19, 6-[2-Ethoxy-5-(4-ethylpiperazin-1-ylsulphonyl)pyridin-3-yl]-1-n-propyl-3-(pyrazin-2-yl)-1,5-dihydro-4H-pyrazolo[3,4-d]pyrimidin-4-one]", "IC50": 7.67}
{"compound": "CCOc1ncc(S(=O)(=O)N2CCN(CC)CC2)cc1-c1nc2c(c(-c3cnccn3)nn2CC)c(=O)[nH]1", "note": "[Example 18, 6-[2-Ethoxy-5-(4-ethylpiperazin-1-ylsulphonyl)pyridin-3-yl]-1-ethyl-3-(pyrazin-2-yl)-1,5-dihydro-4H-pyrazolo[3,4-d]pyrimidin-4-one]", "IC50": 8.1}
{"compound": "CCCOc1ccc(S(=O)(=O)N2CCN(CC)CC2)cc1-c1nc2c(c(Cc3ccccn3)nn2CCC)c(=O)[nH]1", "note": "[Example 1, 6-[5-(4-Ethylpiperazin-1-ylsulphonyl)-2-n-propoxyphenyl]-1-n-propyl-3-(pyridin-2-yl)methyl-1,5-dihydro-4H-pyrazolo[3,4-d]pyrimidin-4-one]", "IC50": 9.3}
{"compound": "CCOc1ncc(S(=O)(=O)N2CCN(CC)CC2)cc1-c1nc2c(c(-c3ccccc3)nn2CC)c(=O)[nH]1", "note": "[Example 21, 6-[2-Ethoxy-5-(4-ethylpiperazin-1-ylsulphonyl)pyridin-3-yl]-1-ethyl-3-phenyl-1,5-dihydro-4H-pyrazolo[3,4-d]pyrimidin-4-one]", "IC50": 4.6}
{"compound": "CCCn1nc(Cc2ccccc2)c2c(=O)[nH]c(-c3cc(S(=O)(=O)N4CCN(C)CC4)ccc3OCC)nc21", "note": "[Example 4, 3-Benzyl-6-[2-ethoxy-5-(4-methylpiperazin-1-ylsulphonyl)phenyl]-1-n-propyl-1,5-dihydro-4H-pyrazolo[3,4-d]pyrimidin-4-one]", "IC50": 5.61}
